Read-outs that look alike come from different tables or passages of the source.
How the values were obtained:
[1] = biological target: α2β2 nAChR (Rattus norvegicus (Rat), UniProt P12389+P12390); experiment: [3H]-epibatidine competition binding, α2β2; conditions: Table 1; mean of 3 to 5 measurements
Procedure: (§1) In Vitro Binding Affinities for nAChR Subtypes. […] To determine selectivities of these compounds in binding assays among the three predominant nAChR subtypes, α3β4, α4β2 and α7, the ratios of Ki values (α3β4/α4β2 and α7/α4β2) were determined.
(§2) Cell Lines and Cell Culture. The cell lines expressing defined rat nAChR subtypes were established previously by stably transfecting HEK 293 cells with rat nAChR subunit genes. The cell line expressing human α4β2 nAChRs, YXα4β2H1, was established recently. These cell lines were maintained in minimum essential medium (MEM) supplemented with 10% fetal bovine serum, 100 units/mL penicillin G, […] and selective antibiotics at 37° C. with 5% CO2 in a humidified incubator. Fetal bovine serum was provided by Gemini Bio-Products (Woodland, Calif.). […]
(§3) Briefly, cultured cells at >80% confluence were removed from their flasks (80 cm^2) with a disposable cell scraper and placed in 10 mL of 50 mM Tris.HCl buffer (pH 7.4, 4° C.). […] The filter-retained radioactivity was measured by liquid scintillation counting. […] Data from competition binding assays were analyzed using Prism 5 (GraphPad Software, San Diego, Calif.).
(§4) Pharmacological Properties. We measured the in vitro binding affinities of the ligands for defined receptor subtypes (α2β2, α2β4, α3β2, α3β4, α4β2, α4β4, α6β2, α6β4, and α7) expressed in stably transfected cell lines. […]

[2] = biological target: α2β4 nAChR (Rattus norvegicus (Rat), UniProt P12389+P12392); experiment: [3H]-epibatidine competition binding, α2β4; conditions: Table 1; mean of 3 to 5 measurements
Procedure: as §1, §2, §3, §4

[3] = biological target: α3β2 nAChR (Rattus norvegicus (Rat), UniProt P04757+P12390); experiment: [3H]-epibatidine competition binding, α3β2; conditions: Table 1; mean of 3 to 5 measurements
Procedure: as §1, §2, §3, §4

[4] = biological target: α3β4 nAChR (Rattus norvegicus (Rat), UniProt P04757+P12392); experiment: [3H]-epibatidine competition binding, α3β4
Procedure: as §1
(§5) Cell Lines and Cell Culture. The cell lines expressing defined rat nAChR subtypes were established previously by stably transfecting HEK 293 cells with rat nAChR subunit genes. The cell line expressing human α4β2 nAChRs, YXα4β2H1, was established recently. These cell lines were maintained in minimum essential medium (MEM) supplemented with 10% fetal bovine serum, 100 units/mL penicillin G, […] and selective antibiotics at 37° C. with 5% CO2 in a humidified incubator. Fetal bovine serum was provided by Gemini Bio-Products (Woodland, Calif.). Tissue culture medium and antibiotics were obtained from Invitrogen Corporation (Carlsbad, Calif.), unless otherwise stated.
(§6) Briefly, cultured cells at >80% confluence were removed from their flasks (80 cm^2) with a disposable cell scraper and placed in 10 mL of 50 mM Tris.HCl buffer (pH 7.4, 4° C.). The cell suspension was centrifuged at 10,000×g for 5 min and the pellet was collected. The cell pellet was then homogenized in 10 mL buffer with a polytron homogenizer and centrifuged at 36,000 g for 10 min at 4° C. The membrane pellet was resuspended in fresh buffer, and aliquots of the membrane preparation were used for binding assays. […] Bound and free ligands were separated by vacuum filtration through Whatman GF/C filters treated with 0.5% polyethylenimine. The filter-retained radioactivity was measured by liquid scintillation counting. Specific binding was defined as the difference between total binding and nonspecific binding. Data from competition binding assays were analyzed using Prism 5 (GraphPad Software, San Diego, Calif.).
(§7) Pharmacological Properties. We measured the in vitro binding affinities of the ligands for defined receptor subtypes (α2β2, α2β4, α3β2, α3β4, α4β2, α4β4, α6β2, α6β4, and α7) expressed in stably transfected cell lines. […] Rat forebrain homogenates were included to allow comparison between the heterologous and native α4β2 and α7 nAChRs. See Table 1 for binding affinity values (Ki) of the ligands at the three major nAChR subtypes (α3β4. α4β2 and α7).

[5] = biological target: α4β2 nAChR (Rattus norvegicus (Rat), UniProt P09483+P12390); experiment: biochemical; format: binding; conditions: for Ki: read-out: Ki α4β2
Procedure: as §1, §5, §6, §7

[6] = biological target: α4β4 nAChR (Rattus norvegicus (Rat), UniProt P09483+P12392); experiment: [3H]-epibatidine competition binding, α4β4; conditions: Table 1; mean of 3 to 5 measurements
Procedure: as §1, §2, §3, §4

[7] = biological target: α7 nAChR (Rattus norvegicus (Rat), UniProt Q05941); format: binding
Procedure: as §1, §5, §6, §7

[8] = biological target: human α4β2 nAChRs (Homo sapiens (Human), UniProt P17787+P43681); experiment: 86Rb+ efflux assay (activation and desensitization), α4β2; format: cell-based; conditions: for IC50: desensitization
Procedure: (§8) In Vitro Effects on nAChR Function. […] Their agonist activities were assessed by measuring stimulated ^86Rb^+ efflux from stably transfected cells, either expressing human α4β2 nAChRs or rat α3β4 receptors.
as §5
(§9) ^86Rb^+ Efflux Assay. Functional properties of compounds at nAChRs expressed in the transfected cells were measured using ^86Rb^+ efflux assays as described previously. In brief, cells expressing human α4β2 or rat α3β4 nAChRs were plated into 24-well plates coated with poly-D-lysine. The plated cells were grown at 37° C. for 18 to 24 hour to reach 85-95% confluence. The cells were then incubated in growth medium (0.5 mL/well) containing ^86Rb^+ (2 μCi/mL) for 4 hour at 37° C. The loading mixture was then aspirated, and the cells were washed four times with 1 mL buffer (15 mM HEPES, 140 mM NaCl, 2 mM KCl, 1 mM MgSO4, 1.8 mM CaCl2, 11 mM Glucose, pH 7.4). One mL of buffer with or without compounds to be tested was then added to each well. After incubation for 2 min, the assay buffer was collected for measurements of ^86Rb^+ released from the cells. Cells were then lysed by adding 1 mL of 100 mM NaOH to each well, and the lysate was collected for determination of the amount of ^86Rb^+ that was in the cells at the end of the efflux assay. Radioactivity of assay samples and lysates was measured by liquid scintillation counting. Total loading (cpm) was calculated as the sum of the assay sample and the lysate of each well. The amount of ^86Rb^+ efflux was expressed as a percentage of ^86Rb^+ loaded. […] For obtaining EC50 and Emax values, stimulation curves were constructed in which 8 different concentrations of a ligand were included in the assay. […] EC50, Emax and IC50(10′) values were determined by nonlinear least-squares regression analyses (GraphPad, San Diego, Calif.).
(§10) The functional properties of the ligands were determined by ^86Rb^+ efflux assays in cells expressing α3β4 and α4β2 nAChR subtypes. The functional activity of each ligand was measured for its agonism, antagonism and desensitization ability. Agonist activity for each of the ligands was tested at eight different concentrations. […] The full concentration-effect curves generated potency (EC50) and efficacy (Emax) of each ligand. […] We tested each ligand for antagonist activity at eight concentrations. The potency (IC50(0′)) of each ligand as an antagonist was derived from the full concentration-effect curves.

[9] = biological target: rat α3β4 nAChRs (Rattus norvegicus (Rat), UniProt P04757+P12392); experiment: 86Rb+ efflux assay (activation and desensitization), α3β4; format: cell-based
Procedure: as §8, §5, §9, §10

[10] = Table 1, mean of 3 to 5 measurements

SMILES: Cc1ncc(C#CCCCCCl)cc1OC[C@@H]1CCN1 [(S)-21, (S)-3-(azetidin-2-ylmethoxy)-5-(6-chlorohex-1-ynyl)-2-methylpyridine]
- Ki [1]: 0.0086 µM
- Ki [2]: 29 µM
- Ki [3]: 0.3 µM
- Ki [4, 10]: 92 µM
- Ki ([4]; Table 3 (Example 4)): 86 µM
- Ki [5, 10]: 0.0053 µM
- Ki ([5]; Table 3 (Example 4)): 0.0047 µM
- Ki Ratio α3β4/α4β2 ([5]; selectivity for α4β2 over α3β4): 17,000
- Ki Ratio α7/α4β2 ([5]; selectivity for α4β2 over α7): 13,000
- Ki [6]: 3.7 µM
- Ki [7, 10]: 67 µM
- Ki ([7]; Table 3 (Example 4)): 67.2 µM
- Emax α4β2 nAChRs ([8]; agonist efficacy normalized to Emax of nicotine, ND = no significant stimulated efflux detected): didn't show detectable agonist activity
- IC50 ([8]; 10 min pre-treatment, Table 3 (Example 4), read-out: IC50(10′) α4β2): 0.27 µM
- IC50 ([8]; 10 min pre-incubation before 100 μM nicotine, Table 2, read-out: IC50(10′) α4β2 nAChRs): 0.26 µM
- IC50 ([9]; read-out: IC50(10′) α3β4): 11 µM
- IC50 ([9]; read-out: IC50(10′) α3β4 nAChRs): > 10 µM

Reference: patent US9303017B2, “2,5-disubstituted-pyridyl nicotinic ligands, and methods of use thereof” (Georgetown University, priority 2011, dated 2016)
